System: Glomerella lagenarium (Colletotrichum lagenarium)
Assay: Fungicidal activity against Glomerella lagenarium (Colletotrichum lagenarium) liquid culture / cucumber / preventative (anthracnose)
Format: cell-based
Conditions: Colletotrichum orbiculare; 20 ppm in the applied formulation; liquid culture (PDB), growth inhibition measured photometrically after 3 to 4 days; compared to untreated control; read-out: disease control
Description: Mycelia fragments or conidia suspensions of a fungus prepared either freshly from liquid cultures of the fungus or from cryogenic storage, are directly mixed into nutrient broth. DMSO solutions of the test compound (max. 10 mg/ml) are diluted with 0.025% Tween20 by a factor of 50 and 10 μl of this solution is pipetted into a microtiter plate (96-well format). The nutrient broth containing the fungal spores/mycelia fragments is then added to give an end concentration of the tested compound. The test plates are incubated in the dark at 24° C. and 96% relative humidity. The inhibition of fungal growth is determined photometrically after 2 to 7 days, depending on the pathosystem, and percent antifungal activity relative to the untreated check is calculated.
Fungicidal activity against Glomerella lagenarium (Colletotrichum lagenarium) liquid culture/cucumber/Preventative (Anthracnose)
Conidia of the fungus from cryogenic storage are directly mixed into nutrient broth (PDB—potato dextrose broth). After placing a (DMSO) solution of test compound into a microtiter plate (96-well format), the nutrient broth containing the fungal spores is added.
The following compounds at 20 ppm in the applied formulation give at least 80% disease control in this test when compared to untreated control under the same conditions, which show extensive disease development.

Row | SMILES | inhibition of growth at 20 ppm
1 | CON(C(=O)C1CCCC1)C(C)c1ccc(-c2noc(C(F)(F)F)n2)cc1 (centres unmarked) [Compound 1.257] | ≥ 80%
2 | O=C(C=CC(F)(F)F)N(Cc1ccc(-c2noc(C(F)(F)F)n2)cc1)CC1CCCO1 (centres unmarked) [Compound 1.425, 4,4,4-trifluoro-N-(tetrahydrofuran-2-ylmethyl)-N-[[4-[5-(trifluoromethyl)-1,2,4-oxadiazol-3-yl]phenyl]methyl]-but-2-enamide] | ≥ 80%
3 | CC(C)(C)CC(=O)N(Cc1ccc(-c2noc(C(F)(F)F)n2)cc1)C1CC1 [Compound 1.116, N-cyclopropy 1-3,3-dimethyl-N-[[4-[5-(trifluoromethyl)-1,2,4-oxadiazol-3-yl]phenyl]methyl]-butanamide] | ≥ 80%
4 | O=C(c1cccc(C(F)(F)F)c1)N(Cc1ccc(-c2noc(C(F)(F)F)n2)cc1)C1CC1 [Compound 1.88, N-cyclopropyl-3-(trifluoromethyl)-N-[[4-[5-(trifluoromethyl)-1,2,4-oxadiazol-3-yl]phenyl]methyl]-benzamide] | ≥ 80%
5 | CCCC(=O)N(Cc1ccc(-c2noc(C(F)(F)F)n2)cc1)OCC=C(Cl)Cl [Compound 1.541, N-(3,3-dichloroallyloxy)-N-[[4-[5-(trifluoromethyl)-1,2,4-oxadiazol-3-yl]phenyl]methyl]-butanamide] | ≥ 80%
6 | CCC(C)C(=O)N(Cc1ccc(-c2noc(C(F)(F)F)n2)cc1)OCC=C(Cl)Cl (centres unmarked) [Compound 1.542, N-(3,3-dichloroallyloxy)-2-methyl-N-[[4-[5-(trifluoromethyl)-1,2,4-oxadiazol-3-yl]phenyl]methyl]-butanamide] | ≥ 80%
7 | O=C(C1CC1c1ccccc1)N(Cc1ccc(-c2noc(C(F)(F)F)n2)cc1)C1CC1 (centres unmarked) [Compound 1.98, N-cyclopropyl-2-phenyl-N-[[4-[5-(trifluoromethyl)-1,2,4-oxadiazol-3-yl]phenyl]methyl]-cyclopropane-carboxamide] | ≥ 80%
8 | C=CC(=O)N(CCOC)Cc1ccc(-c2noc(C(F)(F)F)n2)cc1 [Compound 1.343, N-(2-methoxyethyl)-N-[[4-[5-(trifluoromethyl)-1,2,4-oxadiazol-3-yl]phenyl]methyl]prop-2-enamide] | ≥ 80%
9 | CC1(C(=O)N(Cc2ccc(-c3noc(C(F)(F)F)n3)cc2)C2CC2)CCCCC1 [Compound 1.108, N-cyclopropyl-1-methyl-N-[[4-[5-(trifluoromethyl)-1,2,4-oxadiazol-3-yl]phenyl]methyl]-cyclohexane-carboxamide] | ≥ 80%
10 | CON(C(=O)C1CCC1)C(C)c1ccc(-c2noc(C(F)(F)F)n2)cc1 (centres unmarked) [Compound 1.262, N-methoxy-N-[1-[4-[5-(trifluoromethyl)-1,2,4-oxadiazol-3-yl]pheny1]ethyl]-cyclobutane-carboxamide] | ≥ 80%
11 | CCCON(Cc1ccc(-c2noc(C(F)(F)F)n2)cc1)C(=O)COCC [Compound 1.297, 2-ethoxy-N-propoxy-N-[[4-[5-(trifluoromethyl)-1,2.4-oxadiazol-3-yl]phenyl]methyl]-acetamide] | ≥ 80%
12 | CC(=O)C=CC(=O)N(Cc1ccc(-c2noc(C(F)(F)F)n2)cc1)CC1CCCO1 (centres unmarked) [Compound 1.439, 4-oxo-N-(tetrahydrofuran-2-ylmethyl)-N-[[4-[5-(trifluoromethyl)-1,2,4-oxadiazol-3-yl]phenyl]methyl]-pent-2-enamide] | ≥ 80%
13 | CCCON(Cc1ccc(-c2noc(C(F)(F)F)n2)cc1)C(=O)CCCOC [Compound 1.321, 4-methoxy-N-propoxy-N-[[4-[5-(trifluoromethyl)-1,2,4-oxadiazol-3-yl]phenyl]methyl]-butanamide] | ≥ 80%
14 | C#CCC(NS(=O)(=O)CC)C(=O)N(Cc1ccc(-c2noc(C(F)(F)F)n2)cc1)CC1CC1 (centres unmarked) [Compound 1.239, N-(cyclopropylmethyl)-2-(ethylsulfonylamino)-N-[[4-[5-(trifluoromethyl)-1,2,4-oxadiazol-3-yl]phenyl]methyl]-pent-4-ynamide] | ≥ 80%
15 | CCC(COC)C(=O)N(Cc1ccc(-c2noc(C(F)(F)F)n2)cc1)C(C)CC (centres unmarked) [Compound 1.397, 2-(methoxymethyl)-N-sec-butyl-N-[[4-[5-(trifluoromethyl)-1,2,4-oxadiazol-3-yl]phenyl]methyl]-butanamide] | ≥ 80%
16 | CON(Cc1ccc(-c2noc(C(F)(F)F)n2)cc1)C(=O)OCc1ccccc1 [Compound 2.10, benzyl N-methoxy-N-[[4-[5-(trifluoromethyl)-1,2,4-oxadiazol-3-yl]phenyl]methyl]-carbamate] | ≥ 80%

Row | SMILES | inhibition of growth at 20 ppm
17 | N#CCC(=O)N(Cc1ccc(-c2noc(C(F)(F)F)n2)cc1)Cc1ccco1 [Compound 1.470, 2-cyano-N-(2-furylmethyl)-N-[[4-[5-(trifluoromethyl)-1,2,4-oxadiazol-3-yl]phenyl]methyl]-acetamide] | ≥ 80%
18 | CON(Cc1ccc(-c2noc(C(F)(F)F)n2)cc1)C(=O)OCC(C)(C)C [Compound 2.18, 2,2-dimethylpropyl N-methoxy-N-[[4-[5-(trifluoromethyl)-1,2,4-oxadiazol-3-yl]phenyl]methyl]-carbamate] | ≥ 80%
19 | CC(C)(C)CC(=O)N(Cc1ccc(-c2noc(C(F)(F)F)n2)cc1)CC1CCCO1 (centres unmarked) [Compound 1.429, 3,3-dimethyl-N-(tetrahydrofuran-2-ylmethyl)-N-[[4-[5-(trifluoromethyl)-1,2,4-oxadiazol-3-yl]phenyl]methyl]-butanamide] | ≥ 80%
20 | CC=CC(=O)N(Cc1ccc(-c2noc(C(F)(F)F)n2)cc1)OCCC [Compound 1.285, N-propoxy-N-[[4-[5-(trifluoromethyl)-1,2,4-oxadiazol-3-yl]phenyl]methyl]but-2-enamide] | ≥ 80%
21 | CCCON(Cc1ccc(-c2noc(C(F)(F)F)n2)cc1)C(=O)C1CCC1 [Compound 1.295, N-propoxy-N-[[4-[5-(trifluoromethyl)-1,2,4-oxadiazol-3-yl]phenyl]methyl]-cyclobutane-carboxamide] | ≥ 80%
22 | O=C(C1CCCC1)N(Cc1ccc(-c2noc(C(F)(F)F)n2)cc1)CC1CCCO1 (centres unmarked) [Compound 1.419, N-(tetrahydrofuran-2-ylmethyl)-N-[[4-[5-(trifluoromethyl)-1,2,4-oxadiazol-3-yl]phenyl]methyl]-cyclopentane-carboxamide] | ≥ 80%
23 | CCCON(Cc1ccc(-c2noc(C(F)(F)F)n2)cc1)C(=O)CC(F)(F)F [Compound 1.318, 3,3,3-trifluoro-N-propoxy-N-[[4-[5-(trifluoromethyl)-1,2,4-oxadiazol-3-yl]phenyl]methyl]-propanamide] | ≥ 80%
24 | CCC(C)N(Cc1ccc(-c2noc(C(F)(F)F)n2)cc1)C(=O)C=CC(F)(F)F (centres unmarked) [Compound 1.382, 4,4,4-trifluoro-N-sec-butyl-N-[[4-[5-(trifluoromethyl)-1,2,4-oxadiazol-3-yl]phenyl]methyl]but-2-enamide] | ≥ 80%
25 | O=C(C1CC1)N(Cc1ccc(-c2noc(C(F)(F)F)n2)cc1)OCC=C(Cl)Cl [Compound 1.548, N-(3,3-dichloroallyloxy)-N-[[4-[5-(trifluoromethyl)-1,2,4-oxadiazol-3-yl]phenyl]methyl]-cyclopropane-carboxamide] | ≥ 80%
26 | O=C(CC1CC1(F)F)N(Cc1ccc(-c2noc(C(F)(F)F)n2)cc1)CC1CC1 (centres unmarked) [Compound 1.240, N-(cyclopropylmethyl)-2-(2,2-difluorocyclopropyl)-N-[[4-[5-(trifluoromethyl)-1,2,4-oxadiazol-3-yl]phenyl]methyl]-acetamide] | ≥ 80%
27 | C=CC(=O)N(Cc1ccc(-c2noc(C(F)(F)F)n2)cc1)OCCC [Compound 1.301, N-propoxy-N-[[4-[5-(trifluoromethyl)-1,2,4-oxadiazol-3-yl]phenyl]methyl]-prop-2-enamide] | ≥ 80%
28 | CON(Cc1ccc(-c2noc(C(F)(F)F)n2)cc1)C(=O)C(F)(F)F [Compound 1.780, 2,2,2-trifluoro-N-methoxy-N-[[4-[5-(trifluoromethyl)-1,2,4-oxadiazol-3-yl]phenyl]methyl]-acetamide] | ≥ 80%
29 | CCCON(Cc1ccc(-c2noc(C(F)(F)F)n2)cc1)C(=O)C1CC1 [Compound 1.319, N-propoxy-N-[[4-[5-(trifluoromethyl)-1,2,4-oxadiazol-3-yl]phenyl]methyl]-cyclopropane-carboxamide] | ≥ 80%
30 | O=C(Cc1ccccc1)N(Cc1ccc(-c2noc(C(F)(F)F)n2)cc1)CC1CC1 [Compound 1.228, N-(cyclopropylmethyl)-2-phenyl-N-[[4-[5-(trifluoromethyl)-1,2,4-oxadiazol-3-yl]phenyl]methyl]-acetamide] | ≥ 80%
31 | CON(C(=O)C1(F)CC1)C(C)c1ccc(-c2noc(C(F)(F)F)n2)cc1 (centres unmarked) [Compound 1.271, 1-fluoro-N-methoxy-N-[1-[4-[5-(trifluoromethyl)-1,2,4-oxadiazol-3-yl]phenyl]ethyl]-cyclopropane-carboxamide] | ≥ 80%
32 | CON(Cc1ccc(-c2noc(C(F)(F)F)n2)cc1)C(=O)OCCCCCl [Compound 2.13, 4-chlorobutyl N-methoxy-N-[[4-[5-(trifluoromethyl)-1,2,4-oxadiazol-3-yl]phenyl]methyl]-carbamate] | ≥ 80%
